{"source": "patent US20110182943A1", "about": "“METHODS OF IMMUNE OR HEMATOLOGICAL ENHANCEMENT, INHIBITING TUMOUR FORMATION OR GROWTH, AND TREATING OR PREVENTING CANCER, CANCER SYMPTOMS, OR THE SYMPTOMS OF CANCER TREATMENTS” (FONTERRA CO-OPERATIVE GROUP LIMITED, priority 2007, published 2011)", "key": {"[1]": {"conditions": "day 4; 300 mg/Kg i.p.; irrespective of the diet fed", "description": "Cyclophosphamide, diluted in PBS, was administered i.p. at 300 mg/Kg.\n(§1) Groups of six C57BL/6 mice were fed an AIN93G diet or the same diet substituted with either 5%, 25% or 70% milk fat, and after 4 weeks of feeding were injected intraperitoneally with cyclophosphamide (300 mg/Kg of body weight) at day 0. The mice were killed 4, 8, and 12 days later, and tissues analyzed for the side-effects of drug treatment, as described below."}, "[2]": {"conditions": "single injection 300 mg/Kg i.p.; control diet", "description": "as §1"}, "EL-4 tumour cells": {"tested_on": "EL-4 tumour cells", "experiment": "EL-4 lymphoma tumour growth in mice fed experimental diets", "type": "in vivo, C57BL/6 mice", "excerpt": "Mice were challenged subcutaneously with 2×10^5 EL-4 tumour cells two weeks after being placed on the diets. Tumour size as measured by two perpendicular diameters (in centimetres) was monitored until day 91, or until tumours reached 1 cm in diameter. Each point represents the mean tumour size with 95% confidence intervals for either 6 mice, or the number of mice indicated.\nGroups of six mice were fed a control AIN-93G diet, diets containing either 28 g Lf+ or 120 g of milk fat (AMF) per 2.4 Kg of diet, or a diet containing a combination of both Lf and milk fat. Day 0 refers to the day the mice were placed on their diets. After 2 weeks on the diets, 2×10^5 EL-4 cells were injected into the flanks of mice. Tumour size as measured by two perpendicular diameters (in centimetres) was monitored until day 56. Each point represents the mean tumour size with 95% confidence intervals for either 6 mice, or the number of mice indicated.\nMice were challenged subcutaneously with EL-4 tumour cells two weeks after being placed on the diets. Tumour size was again measured by two perpendicular diameters (in centimetres)."}, "4T1 tumour cells": {"tested_on": "4T1 tumour cells", "experiment": "4T1 breast cancer primary tumour growth", "type": "in vivo, Balb/c mice", "quoted_text": "Tumours were established by s.c. injection of 2×10^5 EL-4 or 2×10^4 4T1 cells into the left flank of mice, and tumour growth determined by measuring two perpendicular diameters. Animals were euthanased when tumours reached more than 1.0 cm in diameter, in accord with Animal Ethics Approval (University of Auckland). All experiments included 5 or 6 mice per treatment group, unless otherwise indicated. Paclitaxel (30 mg dissolved in 5 ml of Cremophor® EL and dehydrated alcohol) was diluted in 0.9% NaCl and administered i.p. at 30 mg/Kg.\nGroups of 6 Balb/c mice were fed the base AIN-93 diet, or the same diet substituted with 5% milk fat, representing ˜71% of the fat component of the diet. Mice were challenged subcutaneously with 2×10^4 4T1 tumour cells two weeks after being placed on the diets. The mice were monitored for tumour growth, and tumour size was measured every three days."}, "[3]": {"experiment": "Body, tumour, organ and tissue weights (cachexia) in 4T1 tumour-bearing mice", "quoted_text": "Tumours were established by s.c. injection of 2×10^5 EL-4 or 2×10^4 4T1 cells into the left flank of mice, and tumour growth determined by measuring two perpendicular diameters. […] All experiments included 5 or 6 mice per treatment group, unless otherwise indicated. Paclitaxel (30 mg dissolved in 5 ml of Cremophor® EL and dehydrated alcohol) was diluted in 0.9% NaCl and administered i.p. at 30 mg/Kg. In the case of the 4T1 metastatic model of breast cancer, after the mice were euthanased at the end of experiments, the organs including lung, liver and spleen were removed and weighed.\nThe mice were weighed at the start and end of the experiment. After the mice were euthanased, the tumours were excised and weighed. To determine the extent of adipose tissue and muscle wasting, epididymal adipose tissue and the left gastrocnemius muscle were dissected and weighed. The carcass weight was calculated as the difference in weight between the whole body and the tumour."}, "[4]": {"tested_on": "4T1 breast cancer tumours", "experiment": "4T1 liver metastases", "type": "in vivo, Balb/c mice", "conditions": "day 35", "excerpt": "Suppression of liver metastases: Similarly, the livers of the above mice were inspected for tumours and micrometastases. The livers were removed, section, and stained with hematoxylin/eosin, and the numbers of metastatic nodules inside the livers were counted."}, "[5]": {"conditions": "paclitaxel 30 mg/kg i.p.", "quoted_text": "The jejuni from mice were fixed in 4% paraformaldehyde, embedded in paraffin, sectioned at 4 μm, and sections stained with hematoxylin-eosin. In each specimen, 20 well preserved villi were randomly selected and their lengths were measured by microscopy using an objective micrometer.\nTo determine whether milk fat protected the gut against paclitaxel-induced damage, groups of 6 Balb/c mice were fed the base AIN-93 diet, or the same diet substituted with 5% milk fat, representing ˜71% of the fat component of the diet. Two weeks later each mouse received an intraperitoneal injection of paclitaxel (30 mg/kg body weight). One week later they were killed and the jejunum was removed. Paraffin-embedded sections of the jejunum of mice treated with control diet, milk fat diet, control diet plus paclitaxel, and milk fat diet plus paclitaxel were stained with hematoxylin and eosin."}, "[6]": {"tested_on": "jejunal γ-glutamyl transpeptidase (γ-GGT)", "conditions": "paclitaxel 30 mg/kg i.p.", "quoted_text": "The activity of jejunal γ-glutamyl transpeptidase (γ-GGT) was recorded as a separate measure of gut damage, as described previously Ziotnik et al., 2005). A segment of the jejunum (approximately 5 cm) was excised and flushed with 10 ml of PBS, and cut into two 2 cm^2 segments which were placed into 1.0 ml of 1.0% Triton X-100, 0.15 M NaCl, 100 mM Tris, pH 8.0 (Tris buffer). Twenty microlitres of a solution containing 0.3 ml of 100 mM glycyl-glycine, pH 8.0, 0.08 ml Tris buffer, 0.5 ml of 5 mM γ-glutamyl-p-nitroanilide was added to final volume of 0.9 ml. The gut slices were incubated for 10 min in a shaking water bath at 37° C., and γ-GGT activity read at 405 nm. Results were expressed as units of γ-GGT activity per cm of jejunum, where one unit is defined as the γ-GGT activity that releases 1.0 mol of p-nitroaniline in 1 h.\nTo determine whether milk fat protected the gut against paclitaxel-induced damage, groups of 6 Balb/c mice were fed the base AIN-93 diet, or the same diet substituted with 5% milk fat, representing ˜71% of the fat component of the diet. Two weeks later each mouse received an intraperitoneal injection of paclitaxel (30 mg/kg body weight). One week later they were killed and the jejunum was removed."}, "[7]": {"experiment": "Blood cell counts in 4T1 tumour-bearing mice", "type": "in vivo, Balb/c mice"}, "[8]": {"experiment": "Paclitaxel-induced apoptosis in jejunal crypts (TUNEL)", "type": "in vivo, Balb/c mice", "conditions": "paclitaxel 30 mg/kg i.p.", "description": "Tumours were excised and immediately frozen in dry ice, and stored at −70° C. for later in situ detection of apoptotic cells in tumours. Frozen serial sections of 6-μm thickness were fixed with paraformaldehyde solution (4% in PBS, pH 7.4), and permeabilized with a solution containing 0.1% Triton X-100 and 0.1% sodium citrate. They were incubated with 20 μl TUNEL reagent (In Situ apoptosis detection kit from Boehringer Mannheim, Germany) for 60 min at 37° C., and examined by fluorescence microscopy. Adjacent sections were counter-stained with haematoxylin to count the total number of cells, or the number of apoptotic cells in ten randomly selected fields (magnification of ×40). The apototic index (AI) was calculated as the number of apoptotic cells×100/total number of nucleated cells. For detection of apoptotic cells in vitro, the numbers of apoptotic and necrotic tumour cells were measured by staining with annexin-V-fluos, TUNEL, and trypan blue. For measurement of gut apoptosis, jejunal sections were stained by the TUNEL method using a DeadEnd™ Fluorometric TUNEL System (Promega, Madison, Wis., USA). Apoptotic cells in 10 randomly selected cypts were counted, and the data expressed as apoptotic bodies per crypt."}, "4T1 primary tumours": {"tested_on": "4T1 primary tumours", "experiment": "4T1 tumour angiogenesis (anti-CD31 staining)", "type": "in vivo, Balb/c mice", "conditions": "day 35", "description": "To determine tumour vascularity, 10-μm frozen tumour sections were fixed with acetone, rinsed with PBS, blocked with 2% BSA for 2 hr, and incubated overnight with the anti-CD31 antibody MEC13.3, or an anti-CD105 mAb. They were subsequently incubated for 30 min with secondary antibodies using the VECTASTAIN Universal Quick kit (Vector Laboratories, Burlingame, Calif., USA); and developed with Sigma FAST DAB (3,3′-diaminobenzidine tetrahydrochloride) and CoCl2 enhancer tablets (Sigma), and counterstained with hematoxylin. Stained blood vessels were counted in five or six blindly chosen random fields (0.155 mm^2) at ×40 magnification, and the mean of the highest three counts was calculated. […]\nThe above 4T1 primary tumours (Example 8; day 35) of untreated mice fed the control diet, paclitaxel-treated mice fed the control diet, untreated mice fed milk fat, and paclitaxel-treated mice fed milk fat were excised, sectioned, and stained with an anti-CD31 antibody to identify vascular endothelial cells so as to measure tumour angiogenesis. Blood vessels stained with the anti-CD31 mAb were counted in blindly chosen random fields to record mean vessel density (8A), or the median distance to the nearest CD31 mAb-labeled blood vessel from an array point (8B)."}, "[9]": {"tested_on": "4T1 breast cancer tumours", "experiment": "4T1 lung surface metastases", "type": "in vivo, Balb/c mice", "conditions": "day 35", "excerpt": "Suppression of lung metastases: The 4T1 breast cancer cell line is highly metastatic and disseminates to the lung and liver. The lungs of the mice in Example 8 (day 35) were inspected for tumours and micrometastases. The mean numbers of tumours on the lung surface of untreated mice fed the control diet, paclitaxel-treated mice fed the control diet, untreated mice fed milk fat, and paclitaxel-treated mice fed milk fat were 32, 18, 22, and 10, respectively (FIG. 6)."}, "[10]": {"conditions": "paclitaxel chemotherapy, control diet"}, "[11]": {"conditions": "tumour-bearing mice, mean ± SEM, n = 6"}}, "data": [{"compound": "O=P1(N(CCCl)CCCl)NCCCO1", "note": "(centres unmarked) [cyclophosphamide]", "values": [{"measurement": "reduction of peripheral WBC count", "setting": "[1]", "value": "more than 90%"}, {"measurement": "reduction in average length of the villi compared with healthy control mice", "setting": "[2]", "value": 65, "unit": "%"}]}, {"compound": "sphingomyelin", "values": [{"measurement": "delay of tumour growth in two mice", "setting": "EL-4 tumour cells; 1.2 g per 2.4 Kg of diet", "value": "~1", "unit": "week"}, {"measurement": "delay of tumour growth in two other mice", "setting": "EL-4 tumour cells; 1.2 g per 2.4 Kg of diet", "value": "~2", "unit": "weeks"}, {"measurement": "effect on tumour growth / tumorigenesis in individual mice", "setting": "EL-4 tumour cells; groups of five mice, per 2.4 Kg of diet: 28 g Lf+, 120 g Phospholac 600, 1.2 g sphingomyelin", "value": "no appreciable affect on tumour growth of the remaining mouse"}]}, {"compound": "CCCCCC/C=C/C=C\\CCCCCCCC(=O)O", "note": "(single isomer, unassigned) [c-9, t-11 CLA isomer]", "values": [{"measurement": "synergy with Lf+", "setting": "4T1 tumour cells; 5 g per 2.4 Kg of diet", "value": "no synergy"}, {"measurement": "effect on growth of 4T1 tumours", "setting": "4T1 tumour cells; 5 g per 2.4 Kg of diet, 3% of the fat component", "value": "only wealdy inhibited"}]}, {"compound": "CC(=O)O[C@H]1C(=O)[C@@]2(C)[C@H]([C@H](OC(=O)c3ccccc3)[C@]3(O)C[C@H](OC(=O)[C@H](O)[C@@H](NC(=O)c4ccccc4)c4ccccc4)C(C)=C1C3(C)C)[C@]1(OC(C)=O)CO[C@@H]1C[C@@H]2O", "note": "[paclitaxel]", "values": [{"measurement": "reduction in lung weight compared to untreated mice fed the control diet", "setting": "[3]; day 35, tumour-bearing mice", "value": 30, "unit": "%"}, {"measurement": "reduction in spleen weights compared to tumour-bearing mice fed the control diet", "setting": "[3]; [10]", "value": 8.5, "unit": "%"}, {"measurement": "Body weight", "setting": "[3]; [11]", "value": "17.7 ± 1.5", "unit": "g"}, {"measurement": "Carcass body weight", "setting": "[3]; [11]", "value": "17.6 ± 1.4", "unit": "g"}, {"measurement": "Epididymal adipose tissue", "setting": "[3]; [11]", "value": "24.3 ± 6.7", "unit": "mg"}, {"measurement": "Gastrocnemius muscle", "setting": "[3]; [11]", "value": "101.2 ± 9.3", "unit": "mg"}, {"measurement": "Liver", "setting": "[3]; [11]", "value": "1210.1 ± 72.4", "unit": "mg"}, {"measurement": "Lung", "setting": "[3]; [11]", "value": "274.5 ± 30.6^3 mg"}, {"measurement": "Spleen", "setting": "[3]; [11]", "value": "72.35 ± 8.2^3 mg"}, {"measurement": "Tumor", "setting": "[3]; [11]", "value": "103.4 ± 24.1^3 mg"}, {"measurement": "mean number of liver metastases", "setting": "[4]", "value": 59}, {"measurement": "reduction in numbers of tumours in the liver compared with untreated mice fed the control diet", "setting": "[4]", "value": 45, "unit": "%"}, {"measurement": "appearance of jejunal villi in sections", "setting": "[5]; hematoxylin and eosin", "value": "broken and flattened villi"}, {"measurement": "reduction in average length of the villi compared with control mice", "setting": "[5]; jejunum one week later", "value": 61, "unit": "%"}, {"measurement": "reduction in jejunal γ-GGT activity compared to untreated control mice", "setting": "[6]", "value": 56, "unit": "%"}, {"measurement": "reduction in RBC count compared to tumour-bearing mice fed the control diet", "setting": "[7]; [10]", "value": 49, "unit": "%"}, {"measurement": "reduction in WBC count compared to tumour-bearing mice fed the control diet", "setting": "[7]; [10]", "value": 44, "unit": "%"}, {"measurement": "RBC", "setting": "[7]; [11]", "value": "3.21 ± 0.74^3 ×10^6/μl"}, {"measurement": "WBC", "setting": "[7]; [11]", "value": "2.37 ± 0.39^3 ×10^3/μl"}, {"measurement": "reduction in tumour size compared with untreated mice fed the control diet", "setting": "4T1 tumour cells; day 35, 5% milk fat diet, paclitaxel 30 mg/kg i.p. at ~0.5 cm", "value": 31, "unit": "%"}, {"measurement": "increase in apoptotic body count per crypt compared with untreated mice", "setting": "[8]", "value": 6, "unit": "fold"}, {"measurement": "increase in median distance to the nearest CD31+ vessels compared with untreated mice fed the control diet", "setting": "4T1 primary tumours", "value": 71, "unit": "%"}, {"measurement": "reduction in microvessel density (CD31+ vessels) compared with untreated mice fed the control diet", "setting": "4T1 primary tumours", "value": 37, "unit": "%"}, {"measurement": "mean number of tumours on the lung surface", "setting": "[9]", "value": 18}, {"measurement": "reduction in numbers of tumours on the lung surface compared with untreated mice fed the control diet", "setting": "[9]", "value": 44, "unit": "%"}]}]}
